Measurements published in patent US20170143603A1, “PROCESS FOR SEMI-PERMANENT STRAIGHTENING OF CURLY, FRIZZY OR WAVY HAIR” (KAO CORPORATION, priority 2010, published 2017).

Assay: Hair straightening treatment, assessment in words of hair look and permanence
Set-up: species or system human
Protocol: Tests consisted in dissolving 10 grams of glyoxylic acid in 100 milliliters of water.
In particular, hair was washed with basic pH (7.5-8.5) shampoo, then said glyoxylic acid solution was applied (application can be made with hard bristle brush, spray or in any other way).
Hair was left in contact with the substance for 60 minute time (+/−30 minutes) and then dried with the hairdryer.
Once dried, hair was straightened with hair straightening iron heated at average temperature of approximately 200°C., +/−50° C.
Finally, hair was rinsed again with water or washed again with shampoo and dried.
Each substance was tested in a mixture with such glyoxylic acid solution by adding 10 grams of one of the substances listed in table 2 to 100 milliliters of said solution.
In particular, a hair straightening test was carried out using the formulation of a cosmetic product by INOAR Cosmeticos Ltda of San Paulo, Brazil, known as “Tratamento capillar marroquino”. The product was deprived of its active ingredient for hair straightening.
10 grams of glyoxylic acid were added to 100 milliliters of said cosmetic and, after carrying out the same hair treatment operations illustrated in the foregoing pages, the results were identical to the ones achieved using the same percentage ratio of glyoxylic acid in water.

O=CC(=O)O [glyoxylic acid, Glyoxylic acid]
hair condition at the end of treatment (10 grams of glyoxylic acid in 100 milliliters of cosmetic “Tratamento capillar marroquino” deprived of its active ingredient): permanently shiny, straight, volumeless, and soft to touch
hair condition at the end of treatment (10 grams of glyoxylic acid in 100 milliliters of water, 60 minute contact, iron approximately 200°C.): shiny, straight, volumeless, soft to touch, and especially pleasant
efficacy of treatment maintained over time (washings, rinsings and dryings in normal use conditions of hair shampoo): at least six washings, rinsings and dryings
result compared with the other buffering agents of the European list (within the process of the invention): best results
